Reference: patent US6017962A, “Method of depletion of methionine in plasma and solid tumors and uses thereof” (Board of Regents, The University of Texas System, priority 1997, dated 2000)
Read-outs that look alike come from different tables or passages of the source.

Tests used:
MGMT [1] = settings: some tumor cell lines; von Wronski et al., 1994; cited from earlier work
NIH-3T3 = assay: Cytotoxicity of BCNU; assay type: cell-based; settings: Mus musculus, NIH3T3, 1 h BCNU, 4 days
Method: (§1) The cytotoxicity of BCNU on cultured cells in MET^+ HCY^+ and MET^- HCY^+ was measured by a modification of the method of Branch et. al. (1993) as follows: methionine-dependent cells were seeded and cultured in MET^+ HCY^- in 35 mm petri dishes until they were nearly confluent. The cells were then transferred in MET^- HCY^+ and cultured for an additional 4 to 6 days at which time cell numbers were reduced due to cell death and inhibition of mitosis. Dead cells were removed and medium was replaced on a daily basis. Following this period in MET^- HCY^+ medium, remaining live cells were washed with PBS and then treated with various concentrations of BCNU in PBS for 1 hour at 37° C. while they were still attached. Subsequently, the BCNU was removed, replaced with MET^+ HCY^- medium and cultures were incubated for an additional 4 days at 37° C. in 6% CO2. At that time cells were trypsinized and counted using a Coulter-Counter (Coulter Electronics, Hialeah Fla.). The concentration of the drug that halves the growth rate of the tumor cells (IC50), was determined from plots of BCNU concentrations versus the percent change in cell numbers as compared to untreated controls within a four day interval from treatment (Jackson, 1992). The IC50 of BCNU on methionine-dependent cells cultured in MET^+ HCY^- or methionine independent cells cultured in either media was also determined by the same method.

U-138 = assay: Cytotoxicity of BCNU; assay type: cell-based; settings: Homo sapiens, 1 h BCNU, 4 days
Method: as §1

H-1944 = assay: Cytotoxicity of BCNU; assay type: cell-based; settings: Homo sapiens, 1 h BCNU, 4 days
Method: as §1

U-87 = assay: Cytotoxicity of BCNU; assay type: cell-based; settings: Homo sapiens, U-87 MG, U-87 (mer^-), 1 h BCNU, 4 days
Method: as §1

D-341 = assay: Cytotoxicity of BCNU; assay type: cell-based; settings: Homo sapiens, 1 h BCNU, 4 days
Method: as §1

H-1623 = assay: Cytotoxicity of BCNU; assay type: cell-based; settings: Homo sapiens, 1 h BCNU, 4 days
Method: as §1

Daoy [2] = assay: Cytotoxicity of BCNU; assay type: cell-based; settings: Homo sapiens
Method: as §1

SW-40 = assay: Cytotoxicity of BCNU; assay type: cell-based, human; settings: for IC50: Homo sapiens, SW-40 (mer^-), 1 h BCNU, 4 days
Method: as §1

[3] = system: MET-independent or mer^- tumor cell lines and normal cells; assay: Cytotoxicity of BCNU (summary); assay type: cell-based; settings: MET^- HCY^+ versus MET^+ HCY^-
Method: as §1

[4] = system: Methionine-dependent, mer^+ tumor cells; assay: Cytotoxicity of BCNU (summary); assay type: cell-based; settings: Homo sapiens
Method: as §1

MGMT positive tumors = settings: prior depletion of MGMT; Dolan et al., 1993; Schold et al., 1996; cited from earlier work
[5] = Plasma methionine and thiols after diet, methionine precursor and methioninase; assay type: in vivo, nude mice; settings: met^- hcy^- chl^- diet, 8 h after precursor 50 mg/kg ip, no methioninase
Method: The methionine peak is marked with an asterik.
FIG. 7A: homocysteine thiolactone; FIG. 7B: homocysteine thiolactone+methioninase; FIG. 7C: homocystine; and FIG. 7D: homocystin+methioninase. All animals were killed 6 hours after the injection of the methionine precursor.
^1 Levels of total thiols in circulation 8 hours after injection (ip)
of met precursor and 6 hours after treatment with methioninase. Mean of 3
determinations ± SD. MET precursor was 50 mg/kg; methioninase
(abbreviated METH.) was 1000k U/kg.

MGMT [6] = settings: Daoy; 48 hrs from repletion following 10 days in HCY
Method: Detaching cells ascertained to be dead by trypan blue exclusion were removed by changing the medium every 48 hours. Cells were then either trypsinized and reseeded in the same medium or washed with PBS and supplied with the methionine-HCY^+ medium. Due to extensive death in this medium, it was necessary to remove detaching dead cells on a daily basis. Cells from both media were harvested at time intervals indicated and used to measure cell cycle status and MGMT activity. Cells from either cultures (5×10^7) were also harvested, washed with PBS and immediately frozen as a source of protein, DNA and RNA. All cells collected were live (>95%) as determined by trypan blue exclusion.
The [^3 H]DNA substrate for measurements of MGMT activity was synthesized as follows: One mCi ethanolic solution of N-[^3 H]methyl-N-nitrosourea (MNU) having specific activity 18.8 Ci/mmol (Amersham) was concentrated to 0.2 ml with a N2 stream and mixed with 1 ml of DNA solution (5 mg) in 0.02 M 2-amino-2-methyl-1,3-propanediol at pH 10. […]
The [^3 H]DNA contained 29.8 μCi of radioactivity (alkylation efficiency 3%) which was distributed as 3-methyladenine 3.5%, 7-MeG 79.6%, 1-methyladenine 0.6%, O^6 -MeG 9.0% and other adducts 7.3%. The specific activities of 7-MeG and O^6 -MeG were calculated to be 15.8±0.8 and 16.5±0.5 Ci/mmol respectively. […]

Daoy [7] = settings: 48 hrs from repletion following 10 days in HCY
[8] = MET^+ HCY^- culture, read-out: IC50 (MET)
[9] = MET^- HCY^+ culture, read-out: IC50 (HCY)

Nc1ncn([C@@H]2O[C@H](CO)[C@@H](O)[C@H]2O)c(=O)n1 [5-azacytidine]
increase of the MGMT activity (MGMT [1]): substantial increase

O=NN(CCCl)C(=O)NCCCl [BCNU, 1,3-bis (2-chloroethyl)-1-nitrosourea]
IC50 (NIH-3T3; NIH-3T3, control mer+, methionine independent, MET^+ HCY^- culture, read-out: IC50 (MET)): 35 µM
IC50 (NIH-3T3; NIH-3T3, MET^- HCY^+ culture, read-out: IC50 (HCY)): 40 µM
IC50 (U-138; [8]): 50 µM
IC50 (U-138; [9]): 10 µM
IC50 (H-1944; NCI-H1944, MET^+ HCY^- culture, read-out: IC50 (MET)): 65 µM
IC50 (H-1944; NCI-H1944, MET^- HCY^+ culture, read-out: IC50 (HCY)): 10 µM
IC50 (U-87; [8]): 15 µM
IC50 (U-87; [9]): 15 µM
IC50 (D-341; D341, MET^+ HCY^- culture, read-out: IC50 (MET)): 65 µM
IC50 (D-341; D341, MET^- HCY^+ culture, read-out: IC50 (HCY)): 10 µM
IC50 (H-1623; NCI-H1623, MET^+ HCY^- culture, read-out: IC50 (MET)): 90 µM
IC50 (H-1623; NCI-H1623, MET^- HCY^+ culture, read-out: IC50 (HCY)): 10 µM
IC50 (Daoy [2]; MET^+ HCY^- culture, 1 h BCNU, counted after 4 days, read-out: IC50 (MET)): 45 µM
IC50 (Daoy [2]; cultured in MET^- HCY^+ 4 days before 1 h BCNU, read-out: IC50 (HCY)): ~5 µM
IC50 (SW-40; [8]): 10 µM
IC50 (SW-40; [9]): 15 µM
resistance to BCNU upon methionine depletion (SW-40; SWB-40, mer^-, methionine-dependent): not affected
sensitivity to BCNU [3]: unaffected
IC50 ([4]; cultured in MET^+ HCY^-): 45 to 90 µM
IC50 ([4]; cultured in MET^- HCY^+): 5 to 10 µM

Nc1nc(OCc2ccccc2)c2[nH]cnc2n1 [O^6 -benzylguanine]
increase in the efficacy of alkylating drugs such as BCNU (MGMT positive tumors): Significant increase

NC1CCSC1=O (centres unmarked) [homocysteine thiolactone]
CYS [5]: 100 ± 13 µM
GSH [5]: 81 µM
HCY [5]: 20 ± 3 µM
MET [5]: 12 ± 3 µM

N[C@@H](CCSSCC[C@H](N)C(=O)O)C(=O)O [homocystine]
CYS [5]: 100 ± 4 µM
GSH [5]: 56 ± 8 µM
HCY [5]: 17 ± 2 µM
MET [5]: 6 ± 2 µM

CSCC[C@H](N)C(=O)O [methionine]
recovery of MGMT activity (MGMT [6]): 65 % of the base line
doubling time after repletion of methionine (Daoy [7]): 22 h
